According to patent publication US20050124494A1, “Compositions comprising a phosphonic compound, and acids as methods for plant growth and regulatory effects” (priority 2003, published 2005):

Test system: Cotton
Experiment: Defoliation of cotton by ethephon with and without muratic acid, field trial Bells TN October 2003
Assay type: in vivo
Details: for Cotton LEAF DEFOLIATION 3 DA-A: rating date Oct. 13, 2003, 3 days after application; for Cotton LEAF DEFOLIATION 6 DA-A: rating date Oct. 16, 2003, 6 days after application
Source text: A preferred mixture would be […] 10%-20% and Phosphoric Acid 1%-40%. This formulation would then be mixed with water as a carrier and applied to the foliage of the target plant at a rate of 3 gallons/Acre to 30 gallons/Acre.

[1] = ethephon 16 FL OZ/A (muratic acid 4 % V/V where combined)
[2] = ethephon 32 FL OZ/A (muratic acid 4 % V/V where combined)

SMILES	Cotton LEAF DEFOLIATION 3 DA-A [1] [%]	Cotton LEAF DEFOLIATION 6 DA-A [1] [%]	Cotton LEAF DEFOLIATION 3 DA-A [2] [%]	Cotton LEAF DEFOLIATION 6 DA-A [2] [%]	Effect of added acid on efficacy of ethephon and speed of the effect on cotton defoliation (summary in words of Table 1)
O=P(O)(O)CCCl [ETHEPHON, (2-chloroethyl)phosphonic acid]	10.8	19.6	16.7	16.7	–
Cl [Muratic Acid]	–	–	–	–	increased the efficacy of ethephon and the speed of the effect
